# Laboratory results as given in patent US6455714B1, “Labeled vitamin D compounds and the use thereof” (A & D BioScience, Inc., priority 1995, dated 2002).
# Like-named read-outs stand apart in the source and are kept apart here.
# Key:
# DBP [1] = target: T1, DBP (Homo sapiens, UniProt P02774); assay: ELISA to demonstrate that compound C can be competed out with 25-OH-D3; assay type: binding; details: 2 μg 25-OH-D3 added with C (30, 60, 120 ng); triplicate
# T1 construct: purchased Calbiochem, San Diego, Calif
# T1 sequence (P02774 17-474): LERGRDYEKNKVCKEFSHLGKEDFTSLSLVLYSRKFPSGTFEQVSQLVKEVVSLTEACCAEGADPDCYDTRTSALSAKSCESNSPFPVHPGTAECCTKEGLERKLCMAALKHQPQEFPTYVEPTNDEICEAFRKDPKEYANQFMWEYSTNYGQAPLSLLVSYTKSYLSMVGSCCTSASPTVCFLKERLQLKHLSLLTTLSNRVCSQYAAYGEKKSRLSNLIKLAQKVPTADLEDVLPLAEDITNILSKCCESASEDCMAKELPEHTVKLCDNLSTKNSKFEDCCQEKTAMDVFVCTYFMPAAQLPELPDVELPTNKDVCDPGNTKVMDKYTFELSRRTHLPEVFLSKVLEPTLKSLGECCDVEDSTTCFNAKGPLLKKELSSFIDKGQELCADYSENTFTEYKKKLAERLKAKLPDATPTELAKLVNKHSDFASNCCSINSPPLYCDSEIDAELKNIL
# Experimental: In the next experiment, it was determined whether it would be possible to displace compound C, bound to DBP (which is attached to an ELISA plate), with a known concentration of 25-OH-D3. In a real sample, one will be measuring the amount of 25-OH-D and not that of compound C.
# Procedure: same as before, except either C, or C and 2 μg of 25-OH-D3 were added to each plate. Each concentration (point) was done in triplicate. The blank contained no 25-OH-D3 or C.
# Furthermore, the amount of compound C is […] to the concentration of added 25-OH-D3.
# [2] = target: T2, Human Vitamin D-binding Protein (hDBP) (Homo sapiens, UniProt P02774)
# T2 sequence (P02774 17-474): T1 sequence (P02774 17-474)
# Experimental: Competitive Radioligand Binding Assays of Aanalogs (C) and (F) with Human Vitamin D-binding Protein (hDBP)
# These assays were carried out to determine the viability of these synthetic analogs to serve as substrates for hDBP.
# DBP [3] = target: T1, DBP; assay: Checkerboard titration (ELISA) of DBP and compound C to obtain a colorimetric signal; assay type: binding; details: with minimum 6.25 ng DBP; color determined visually
# Experimental: The method involves attachment of DBP to an ELISA plate followed by the addition of a known quantity of 25-OH-D3-biotin conjugate (compound C). […] Excess amount of C is washed off, and an excess of avidin is added which gets bound to biotin attached to 25-OH-D3. The plate is then incubated in sequence with anti-avidin antibody, a secondary antibody coupled to horseradish peroxidase (HRP), and ABTS (2,2′-azino-di-(3-ethylbenzthiazoline)sulfonate, the substrate that produces a […] color which may be monitored spectrophotometrically or visually. The intensity (absorbance) of the color is directly proportional to the concentration of compound C. In the first experiment, the optimal concentrations of DBP and compound C to develop color were determined (visually). In this experiment, each sample of DBP was tested against each amount of compound C.
# A. Determination of the Optimal Amount of DBP and Compound (C) in a Checkerboard Titration (ELISA) to obtain a Colorimetric Signal
# Add different amounts of purified hDBP (From Calbiochem, San Diego, Calif., in 100 mM Na2CO3 buffer, pH 8.4) to wells of an ELISA plate
# Block excess sites with BSA (1 mg/ml, 300 μl)
# ↓ wash with PBS containing 0.05% TWEEN 20
# Add different amounts of C in EtOH
# Wash with PBS containing 0.05% TWEEN 20 (Biorad, Richmond, Calif.) […]
# Color development detected visually or spectrophotometrically.
molecule,measurement,setting,value
"C=C1CC[C@H](O)C/C1=C/C=C1\CCC[C@]2(C)[C@@H]([C@H](C)CCCC(C)(C)O)CC[C@@H]12 [Compound 25-OH-D3, 25-hydroxyvitamin D3]",displacement of compound C bound to DBP on an ELISA plate (color development),DBP [1],capable of displacing compound C bound to DBP
"C=C1CC[C@H](OCCCNC(=O)CCCCCNC(=O)CCCC[C@@H]2SC[C@@H]3NC(=O)N[C@@H]32)C/C1=C/C=C1\CCC[C@]2(C)[C@@H]([C@H](C)CCCC(C)(C)O)CC[C@@H]12 [C, Conjugate of 25-OH-D3-3-Aminopropyl Ether and Biotin-X-NHS]",ability to replace 25-OH-D3 for DBP binding,[2],can replace 25-OH-D3 for DBP binding
same,times less efficient than 25-OH-D3 in displacing 3H-25-OH-D3 bound to hDBP,[2],~11 times
same,minimum amount required to obtain yellow color,DBP [3],30 ng
Biotin conjugate of 25-OH-D3-3-aminopropyl-3-(6-amino) hexanoic acid,ability to replace 25-OH-D3 for DBP binding,[2]; FIG. 1,can replace 25-OH-D3 for DBP binding
